{
  "source": "patent US12636299B2",
  "about": "“Terpenoid derivatives, pharmaceutical preparations containing these derivatives and their use in neuroprotection” (UNIVERZITA PALACKEHO V OLOMOUCI, priority 2020, dated 2026)",
  "key": {"[1]": {"tested_on": "SH-SY5Y human neuroblastoma cell line", "test": "Cytotoxicity, Calcein AM viability assay on neuron-like SH-SY5Y cells", "format": "cell-based", "description": "The SH-SY5Y human neuroblastoma cell line obtained from ECACC (The European Collection of Authenticated Cell Cultures) was cultivated in Dulbecco's modified Eagle's Medium and Ham's F12 Nutrient Mixture (DMEM:F-12, 1:1), supplemented with 10% fetal bovine serum (FBS) and 1% penicillin and streptomycin at 37° C. in a humidified atmosphere 5% CO2, 95% humidity in passage limit up to ECACC+20. The assay was performed in 96-well microplate with 7000 SH-SY5Y cells per well. After 48 h, old DMEM/F12 media was removed by fresh media containing tested compounds at 0.1, 1 and 10 μM concentrations for 24 h. Glial cell line A-172 purchased from ATCC and grown in same conditions as SH-SY5Y cell line. A-172 cells were seeded in density 2000 cells per well and growing medium was replaced by treatment medium containing tested compounds in 0.1, 1 and 10 μM concentration; or in higher concentrations for R-LA or NAC positive controls for 48 hours. All tested compounds dissolved in DMSO were added into the medium. The maximum concentration of DMSO in media was kept below 0.1% (v/v). The cell viability was measured by Calcein AM (1 mg/ml ThermoFisher) viability assay. Solution of Calcein AM in PBS (0.75 μM) was pipetted to cells and incubated for 50 min. After that the fluorescence was measured at 488/517 nm (excitation/emission) using microplate reader Infinite M200 (TECAN). Calcein AM assay is based on the dye-intracellular-esterase cleavage of non-fluorescent dye (Calcein AM) by living cells to fluorescent dye (Calcein), while dying cells lose such ability. The values in Table 2 show the % of viability compared to control for all tested compounds. The results from DMSO control (medium with DMSO, <0.1% (v/v)) was postulated as 100% viability (see the first line of Table 2)."}, "[2]": {"tested_on": "glial A-172 cells", "test": "Cytotoxicity, Calcein AM viability assay on glial A-172 cells", "format": "cell-based, human", "conditions": "NAC at 1000 μM", "description": "The assay was performed in 96-well microplate with 7000 SH-SY5Y cells per well. After 48 h, old DMEM/F12 media was removed by fresh media containing tested compounds at 0.1, 1 and 10 μM concentrations for 24 h. Glial cell line A-172 purchased from ATCC and grown in same conditions as SH-SY5Y cell line. […] All tested compounds dissolved in DMSO were added into the medium. The maximum concentration of DMSO in media was kept below 0.1% (v/v). The cell viability was measured by Calcein AM (1 mg/ml ThermoFisher) viability assay. Solution of Calcein AM in PBS (0.75 μM) was pipetted to cells and incubated for 50 min. After that the fluorescence was measured at 488/517 nm (excitation/emission) using microplate reader Infinite M200 (TECAN). Calcein AM assay is based on the dye-intracellular-esterase cleavage of non-fluorescent dye (Calcein AM) by living cells to fluorescent dye (Calcein), while dying cells lose such ability."}, "[3]": {"tested_on": "glial A-172 cells", "test": "Cytotoxicity, Calcein AM viability assay on glial A-172 cells", "format": "cell-based, human", "conditions": "48 hours"}, "[4]": {"tested_on": "astrocyte A-172 cells", "test": "3NPA-induced model of Huntington's disease, astrocyte A-172 cells", "format": "cell-based, human", "conditions": "difference to 10 mM 3NPA, 48 h", "description": "(§1) Before application of toxin 3-nitropropionic acid (3NPA) for mimicking Huntington's disease, the 3NPA was dissolved in water and neutralized by sodium hydroxide. SH-SY5Y cells were seeded in the same density and differentiated by the procedure shown above. Astrocyte cells A-172 were also seeded as described in previous section. Both cell lines were co-treated by 3NPA (20 mM for SH-SY5Y cells, […]) and tested compounds at 0.1, 1 and 10 μM concentration for 48 h."}, "[5]": {"tested_on": "human neuron-like SH-SY5Y cells", "test": "3NPA-induced model of Huntington's disease, neuron-like SH-SY5Y cells", "format": "cell-based", "conditions": "10 μM (NAC), difference to 20 mM 3NPA, 48 h", "description": "as §1"}, "[6]": {"tested_on": "human neuroblastoma cell line SH-SY5Y", "test": "Viability of differentiated SH-SY5Y in salsolinol-induced model of PD (Calcein AM)", "format": "cell-based", "conditions": "difference between 800 μM SAL and co-treatment group means, 24 hours", "description": "Similarly, as in previous “Safety test”, the SH-SY5Y cells were seeded at density 7000 cells/well. After 48 h differentiation, old 1% DMEM/F12 media was replaced by fresh media containing 800 μM salsolinol (SAL) and tested compounds in 0.1, 1 and 10 μM concentrations. N-acetylcystein were chosen as positive control. After 24 hours, the cell viability was measured by Calcein AM viability assay. The values in Table 2 show % of viability of all tested compounds relative to control. The control (medium with DMSO, <0.1% (v/v)) was postulated as 100% viability (see the first line of the table), while the SAL exposure lead to decrease of viability to 65.4±0.97%."}, "[7]": {"tested_on": "superoxide radical formation", "test": "Oxidative stress (superoxide radical formation, DHE) in 3NPA-induced model on SH-SY5Y", "format": "cell-based, human", "conditions": "20 mM 3NPA = 100%, 24 hours", "description": "Similarly, to previous assay, cells grown on 96-multiwell plates at density 20000 cells per well underwent differentiation and treatment procedure with 3-nitropropionic acid (3NPA) in this model. After 24 hours of co-treatment with 20 mM 3NPA, superoxide radical's formation as a marker of oxidative stress was quantified by dihydroethidium according to Kim et al. (2017, J. Med. Food, 20, 140-151). Briefly, neuron-like SH-SY5Y cells were centrifuged at 500 g for 5 min and 30 s, then media were replaced by 10 μM DHE PBS solution and kept at room temperature for 30 min. After that, DHE was read at 500 nm/580 nm (excitation/emission) by Infinite M200 Pro (Tecan) microplate reader. DHE is cell permeable dye which is selective for superoxide radical detection. Overall oxidative stress achieved by 20 mM 3NPA was consider as 100% and thus the reduction in superoxide radical's formation (OS reducing effect) was determined. As shown in Table 6 and FIG. 2, 20 mM 3NPA induced 2.7-fold increase in superoxide radical's formation."}, "[8]": {"tested_on": "human neuron-like SH-SY5Y cells", "test": "3NPA-induced model of Huntington's disease, neuron-like SH-SY5Y cells", "format": "cell-based", "conditions": "difference to 20 mM 3NPA, 48 h"}, "[9]": {"tested_on": "caspase-3,7 activity", "test": "Caspase-3,7 activity in salsolinol-induced model of PD on SH-SY5Y (Ac-DEVD-AMC)", "format": "cell-based, human", "conditions": "Homo sapiens, SH-SY5Y, percentages of control (800 μM SAL = 100), 24 hour co-treatment, read-out: Caspase-3,7 activity (% of reduction)", "description": "Similarly, as shown in previous assay, cells grew on 96 multiwell plates at density 20000 cells per well underwent differentiation and treatment procedure for salsolinol model. After 24 hour co-treatment with salsolinol, caspase-3,7 (casp-3,7) activity as marker of apoptosis was quantified by its substrate Ac-DEVD-AMC according to Carrasco et al. (2003, BioTechniques, 34, 1064-1067). In this model, overall casp-3,7 activity induced by 800 μM SAL was consider as 100% and thus the reduction in casp-3,7 was observed after treatment with the protective terpenoid derivatives. As shown in Table 4 and FIG. 2, 800 μM SAL induced 2.9-fold increase."}},
  "data": [
    {"smiles": "CC(=O)N[C@@H](CS)C(=O)O", "note": "[NAC, N-acetyl cysteine, reference compound]", "values": [
      {"measurement": "viability, percentage of DMSO control", "setting": "[1]; 10 μM (NAC)", "result": 92.7, "unit": "%"},
      {"measurement": "viability, percentage of DMSO control", "setting": "[1]; 100 μM (NAC)", "result": 97.5, "unit": "%"},
      {"measurement": "viability, percentage of DMSO control", "setting": "[1]; 1000 μM (NAC)", "result": 101.5, "unit": "%"},
      {"measurement": "effect on viability of astrocytes, in words", "setting": "[2]", "result": "slight decrease in percentage of living cells"},
      {"measurement": "viability, percentage of DMSO control", "setting": "[3]; 10 μM (NAC)", "result": 102.9, "unit": "%"},
      {"measurement": "viability, percentage of DMSO control", "setting": "[3]; 100 μM (NAC)", "result": 96.6, "unit": "%"},
      {"measurement": "viability, percentage of DMSO control", "setting": "[3]; 1000 μM (NAC)", "result": 83.0, "unit": "%"},
      {"measurement": "Astro-protective effect (% of control)", "setting": "[4]; A-172, column head 0.5 μM (positive controls)", "result": "N/A (N/A = no protection)"},
      {"measurement": "Astro-protective effect (% of control)", "setting": "[4]; A-172, column head 5 μM (positive controls)", "result": "N/A (N/A = no protection)"},
      {"measurement": "Astro-protective effect (% of control)", "setting": "[4]; A-172, column head 50 μM (positive controls)", "result": "N/A (N/A = no protection)"},
      {"measurement": "Neuro-protective effect (% of control)", "setting": "[5]", "result": "N/A (N/A = no protection)"},
      {"measurement": "Neuroprotective effect (% of control)", "setting": "[6]; 10 μM (NAC)", "result": "N/A (N/A = no protection)"},
      {"measurement": "Neuroprotective effect (% of control)", "setting": "[6]; 100 μM (NAC)", "result": "N/A (N/A = no protection)"},
      {"measurement": "Neuroprotective effect (% of control)", "setting": "[6]; 1000 μM (NAC)", "result": "16.15 % of control"},
      {"measurement": "Superoxide radical formation (oxidative stress) %", "setting": "[7]; 10 μM (NAC)", "result": 79.6, "unit": "%"},
      {"measurement": "Superoxide radical formation (oxidative stress) %", "setting": "[7]; 100 μM (NAC)", "result": 79.7, "unit": "%"},
      {"measurement": "Superoxide radical formation (oxidative stress) %", "setting": "[7]; 1000 μM (NAC)", "result": 48.5, "unit": "%"},
      {"measurement": "Neuro-protective effect (% of control)", "setting": "[8]; 100 μM (NAC)", "result": "51.35 % of control"},
      {"measurement": "Neuro-protective effect (% of control)", "setting": "[8]; 1000 μM (NAC)", "result": "65.72 % of control"},
      {"measurement": "activity at 100 µM", "setting": "[9]; 100 μM (NAC)", "result": 60.4, "unit": "%"},
      {"measurement": "activity at 1000 µM", "setting": "[9]; 1000 μM (NAC)", "result": 55.2, "unit": "%"}
    ]}
  ]
}
